For series [1], the system named is tympanic membrane (TM). Nature of the series: Titer of phage recovered from within the TM (homogenate) after one-hour application to the external TM surface. It counts as in vivo, Sprague Dawley rats. Particulars: 10^9 PFU in 10 μL PBS, six infected rats, PBS and 0.2 M glycine acid wash (pH 2.2), TM homogenized, titered on E. coli, mean of six. As for the experimental part:
Each peptide phage was applied to the external TM surface (10^9 PFU in 10 μL of PBS) of six previously infected rats, ensuring that the entire membrane surface was covered for one hour.

The test system of series [2] is tympanic membrane (TM). Particulars: recovery from ME lumen after one-hour application to external TM surface; cited from earlier work. As for the experimental part:
Each peptide phage was applied to the external TM surface (10^9 PFU in 10 μL of PBS) of six previously infected rats, ensuring that the entire membrane surface was covered for one hour. The phage solution was removed from the ex ...

Series [3] concerns tympanic membrane (TM) cells. Description: Confocal imaging of immunolabeled phage within the tympanic membrane after one-hour application to the external TM surface in vivo. Set-up: species or system Sprague Dawley rats. The method, then: Rodent cocktail (2.0 mg/kg xylazine and 40.0 mg/kg ketamine i.m.) was employed for anesthesia. The ME bulla was exposed via a ventral midline neck incision. A 25 g needle was used to make a small opening in the bullar bone, through which 5 × 10^4 CFUs of nontypeable Haemophilus influenzae (NTHi) type 3655 [20] was injected, in 50 μL of BHI media using a 30 g needle. Care was taken to avoid damaging the tympanic membrane, ossicles, or inner ear. Animals survived for 48 h to allow for an ME infection to develop, which was confirmed by TM visualization. Phages were then applied to the external TM surface in vivo for one hour in 10^9 PFUs ([…] forming units) in 10 μL of PBS, ensuring the entire surface of the membrane was covered.
For confocal microscopy, TMT3 and WT phages were employed. The animal was sacrificed, the phage solution removed, and the TM washed 3× with PBS to remove any remaining phage solution, then 2× with acid wash to remove phages bound to the TM, followed by 2× with PBS. The bulla was then dissected and opened, the interior TM surfaces were washed as above, and the TM was fixed in cold 4% PFA overnight. The TM was dissected from the annular bone and additionally washed 2× with PBS, and the manubrium of the malleus carefully removed. The membrane was incubated in tissue-penetration and blocking solution (5% Triton X and 10% fetal bovine serum (FBS) in PBS) for one hour at room temperature. The TMs were again washed 2× in PBS and incubated in primary antibody (M13 anti-phage coat protein, rabbit polyclonal antibody, Invitrogen PA1-26758, 1:100) overnight at 4 °C. TMs were washed 2× in PBS and incubated with a secondary antibody (FITC-labeled anti-rabbit, Jackson Immuno, 711-095-152) previously treated with DyLight 405 stain for enhanced visualization (Jackson Immuno 711-475-152) at 1:100 concentration for three hours at room temperature with light protection. TMs were again washed with PBS 2× and stained with DAPI (Novus NPB2-31156, 1:1000, 30 min at room temperature with light protection). Some TMs were also incubated with Texas Red-X Phalloidin (Invitrogen T7471, F-actin staining) at 1:500 concentration for one and one-half hours at room temperature and light protection to stain actin. After incubations, TMs were washed 2× with PBS and mounted with the external surface uppermost using antifade, hard-mount media (Vectashield, VectaLabs H-1400). Control TMs were exposed for 1 h to PBS in vivo and then identically treated.
The localization of the phage was evaluated via fluorescence confocal microscopy. TMs were imaged on a Leica SP8 Confocal with Lightning-adaptive deconvolution or an Olympus FV1000 Confocal with SIM Scanner, and 60× and 100× image stacks were generated for rendering of stained TMs. Image stacks were post-processed using Velocity high-performance software to generate images. Separate portions of the stacks were used to visualize phages in the external epithelium, the middle fibrous layer, and the inner mucosal epithelium.

The mark [4] stands for this setting: NTHi-infected ME, 10^9 PFU in 10 μL PBS, one hour, confocal, ImageJ count.

For TLSPKMPGGGYW [TMT2], the “phage titer recovered from within the TM (in words)” value in series [1] is on record as “significantly higher than those of TMT3”. Besides, in series [2], the “trans-TM transport rate (in words)” value is given as “low transport rate”.

In the case of “SADSTKTTHLTL [TMT3, M13 bacteriophage displaying 12-mer trans-TM peptide […] on pIII]”, the “phage titer recovered from within the TM (in words)” value in series [1] is on record as “higher than that of TMT3 (18)-1”. The “trans-TM transport rate (in words)” value in series [2] is reported as “high transport rate”. Besides, the “mean number of puncta per cell, external epithelium of the TM” value in series [3] (NTHi-infected ME, 10^9 PFU in 10 μL PBS on external TM surface, one hour, anti-M13 immunolabel, confocal, ImageJ count, s.d. 43.1) was 139.2 puncta per cell. In addition, in series [3] (setting [4]), the “median number of puncta per cell, external epithelium of the TM” value is 110 puncta per cell and the “median number of puncta per cell, inner mucosal epithelium of the TM” value came out at 23 puncta per cell. For the same sequence, the “mean number of puncta per cell, inner mucosal epithelium of the TM” value in series [3] (NTHi-infected ME, 10^9 PFU in 10 μL PBS, one hour, confocal, ImageJ count, significantly less than external epithelium (p 0.002)) is recorded as 42.9 (s.d. 44.8) puncta per cell. Also, in series [3] (one-hour application, confocal, ImageJ count), the “phage content of the cells with the highest numbers (mucosal cells comparable to external epithelium)” value is on record as 200–250 puncta/cell. In series [3] (one-hour incubation on the external canal TM surface, confocal imaging), the “presence of phage within TM cells by immunolabeling (in words)” value was “clearly intracellular and are restricted to the cell cytoplasm”.

The values above are taken from paper PMC11727143, “Peptide-Mediated Transport Across the Intact Tympanic Membrane Is Intracellular, with the Rate Determined by the Middle Ear Mucosal Epithelium” (Biomolecules, 2024).
